Experimental data: article PMC5439695 (PLoS ONE, 2017)
Structures can show the parent of a compound that is named as a salt. Where two headings read alike, the source gives them in different places.

Experiments:
[1] = tested on: HEK293 and HepG2 cell lines
estrogen receptor (ER) = conditions: cited from earlier work; for AUC score in Judson 2015: ER antagonist, ToxCast chemicals only, ref Judson 2015; for ER antagonist AUC score: pathway-level model using all Tox21/ToxCast ER assays of 1812 ToxCast chemicals
HepG2 cells [2] = conditions: HepG2 glo
HepG2 cells [3] = test: cells; conditions: Homo sapiens
HEK293 cells [4] = test: cells; conditions: Homo sapiens
HEK293 cells [5] = conditions: HEK293 glo
HEK293 cells [6] = conditions: HEK293 flor
HEK293 cells [7] = test: cells; conditions: Homo sapiens; remark: listed apart in the source
HepG2 cells [8] = test: CellTox Green Cytotoxicity Assay (flor) in HepG2, HepG2[flor]; format: cell-based, human; conditions: HepG2 flor; for EC50: Homo sapiens, given as negative log-scale values;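 for hepg2 flor emax 0: percent activity versus DMSO-only wells with baseline rescaled to 0%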;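 for hepg2 flor emax 40: percent activity versus DMSO-only wells with baseline rescaled to 0%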
[9] = POD potency, max over real-time cytotoxicity assays
[10] = POD potency, median over real-time cytotoxicity assays

Molecule: CN[C@H]1CC[C@@H](c2ccc(Cl)c(Cl)c2)c2ccc(S(N)(=O)=O)cc21 [UK-373911]
- Cyto(realtime)_max [1, 9]: 5.12 log10(M)*-1
- Cyto(realtime)_median [1, 10]: 4.70 log10(M)*-1
- AUC score in Judson 2015 (estrogen receptor (ER)): 6.68e-8

Molecule: CC/C(=C(\c1ccccc1)c1ccc(OCCN(C)C)cc1)c1ccccc1 [Tamoxifen]
- Cyto(realtime)_median [1, 10]: 4.64 log10(M)*-1
- AUC score in Judson 2015 (estrogen receptor (ER)): 0.447

Molecule: O=S1(=O)OC(c2ccc(O)cc2)(c2ccc(O)cc2)c2ccccc21 [Phenol red]
- information ([1]; any activity in any time point/assay): 1
- hepg2_glo_auc (HepG2 cells [2]): 0.5829
- hepg2_glo_bin (HepG2 cells [2]; kinetics bin): inconclusive
- hepg2_glo_emax_0 (HepG2 cells [2]; time point 0): -25.8612
- hepg2_glo_pod_0 (HepG2 cells [2]; time point 0): -4.428
- hepg2_glo_wauc_0 (HepG2 cells [2]; time point 0): 0.7068
- hepg2_glo_emax_8 (HepG2 cells [2]; time point 8): 0
- hepg2_glo_pod_8 (HepG2 cells [2]; time point 8): -4.417
- hepg2_glo_wauc_8 (HepG2 cells [2]; time point 8): 0
- hepg2_glo_emax_16 (HepG2 cells [2]; time point 16): 0
- hepg2_glo_pod_16 (HepG2 cells [2]; time point 16): -4.417
- hepg2_glo_wauc_16 (HepG2 cells [2]; time point 16): 0
- hepg2_glo_emax_24 (HepG2 cells [2]; time point 24): 0
- hepg2_glo_pod_24 (HepG2 cells [2]; time point 24): -4.417
- hepg2_glo_wauc_24 (HepG2 cells [2]; time point 24): 0
- hepg2_glo_emax_32 (HepG2 cells [2]; time point 32): 0
- hepg2_glo_pod_32 (HepG2 cells [2]; time point 32): -4.417
- hepg2_glo_wauc_32 (HepG2 cells [2]; time point 32): 0
- hepg2_glo_emax_40 (HepG2 cells [2]; time point 40): 0
- hepg2_glo_pod_40 (HepG2 cells [2]; time point 40): -4.417
- hepg2_glo_wauc_40 (HepG2 cells [2]; time point 40): 0
- EC50 (HepG2 cells [3]; HepG2, read-out: hepg2_glo_ec50_0): 25.6 µM
- EC50 (HepG2 cells [3]; HepG2, read-out: hepg2_glo_ec50_8): > 38.3 µM
- EC50 (HepG2 cells [3]; HepG2, read-out: hepg2_glo_ec50_16): > 38.3 µM
- EC50 (HepG2 cells [3]; HepG2, read-out: hepg2_glo_ec50_24): > 38.3 µM
- EC50 (HepG2 cells [3]; HepG2, read-out: hepg2_glo_ec50_32): > 38.3 µM
- EC50 (HepG2 cells [3]; HepG2, read-out: hepg2_glo_ec50_40): > 38.3 µM
- EC50 (HEK293 cells [4]; HEK293, read-out: hek293_flor_ec50_0): > 38.3 µM
- EC50 (HEK293 cells [4]; HEK293, read-out: hek293_flor_ec50_8): > 38.3 µM
- EC50 (HEK293 cells [4]; HEK293, read-out: hek293_flor_ec50_16): > 38.3 µM
- EC50 (HEK293 cells [4]; HEK293, read-out: hek293_flor_ec50_24): > 38.3 µM
- EC50 (HEK293 cells [4]; HEK293, read-out: hek293_flor_ec50_32): > 38.3 µM
- EC50 (HEK293 cells [4]; HEK293, read-out: hek293_flor_ec50_40): > 38.3 µM
- hek293_glo_auc (HEK293 cells [5]): 1.203
- hek293_glo_time (HEK293 cells [5]): 40
- hek293_glo_bin (HEK293 cells [5]; kinetics bin): no_cv (no_cv: time > 40)
- hek293_glo_emax_0 (HEK293 cells [5]; time point 0): -33.7
- hek293_glo_pod_0 (HEK293 cells [5]; time point 0): -4.507
- hek293_glo_wauc_0 (HEK293 cells [5]; time point 0): 0.8079
- hek293_glo_emax_8 (HEK293 cells [5]; time point 8): -27.7816
- hek293_glo_pod_8 (HEK293 cells [5]; time point 8): -4.452
- hek293_glo_wauc_8 (HEK293 cells [5]; time point 8): 0.7338
- hek293_glo_emax_16 (HEK293 cells [5]; time point 16): -27.6507
- hek293_glo_pod_16 (HEK293 cells [5]; time point 16): -4.4502
- hek293_glo_wauc_16 (HEK293 cells [5]; time point 16): 0.732
- hek293_glo_emax_24 (HEK293 cells [5]; time point 24): 0
- hek293_glo_pod_24 (HEK293 cells [5]; time point 24): -4.417
- hek293_glo_wauc_24 (HEK293 cells [5]; time point 24): 0
- hek293_glo_emax_32 (HEK293 cells [5]; time point 32): 0
- hek293_glo_pod_32 (HEK293 cells [5]; time point 32): -4.417
- hek293_glo_wauc_32 (HEK293 cells [5]; time point 32): 0
- hek293_glo_emax_40 (HEK293 cells [5]; time point 40): 0
- hek293_glo_pod_40 (HEK293 cells [5]; time point 40): -4.417
- hek293_glo_wauc_40 (HEK293 cells [5]; time point 40): 0
- hek293_flor_auc (HEK293 cells [6]): 0
- hek293_flor_time (HEK293 cells [6]): 48
- hek293_flor_bin (HEK293 cells [6]; kinetics bin): inactive
- hek293_flor_emax_0 (HEK293 cells [6]; time point 0): 0
- hek293_flor_pod_0 (HEK293 cells [6]; time point 0): -4.417
- hek293_flor_wauc_0 (HEK293 cells [6]; time point 0): 0
- hek293_flor_emax_8 (HEK293 cells [6]; time point 8): 0
- hek293_flor_pod_8 (HEK293 cells [6]; time point 8): -4.417
- hek293_flor_wauc_8 (HEK293 cells [6]; time point 8): 0
- hek293_flor_emax_16 (HEK293 cells [6]; time point 16): 0
- hek293_flor_pod_16 (HEK293 cells [6]; time point 16): -4.417
- hek293_flor_wauc_16 (HEK293 cells [6]; time point 16): 0
- hek293_flor_emax_24 (HEK293 cells [6]; time point 24): 0
- hek293_flor_pod_24 (HEK293 cells [6]; time point 24): -4.417
- hek293_flor_wauc_24 (HEK293 cells [6]; time point 24): 0
- hek293_flor_emax_32 (HEK293 cells [6]; time point 32): 0
- hek293_flor_pod_32 (HEK293 cells [6]; time point 32): -4.417
- hek293_flor_wauc_32 (HEK293 cells [6]; time point 32): 0
- hek293_flor_emax_40 (HEK293 cells [6]; time point 40): 0
- hek293_flor_pod_40 (HEK293 cells [6]; time point 40): -4.417
- hek293_flor_wauc_40 (HEK293 cells [6]; time point 40): 0
- EC50 (HEK293 cells [7]; HEK293, read-out: hek293_glo_ec50_0): 25.6 µM
- EC50 (HEK293 cells [7]; HEK293, read-out: hek293_glo_ec50_8): 25.6 µM
- EC50 (HEK293 cells [7]; HEK293, read-out: hek293_glo_ec50_16): 25.6 µM
- EC50 (HEK293 cells [7]; HEK293, read-out: hek293_glo_ec50_24): > 38.3 µM
- EC50 (HEK293 cells [7]; HEK293, read-out: hek293_glo_ec50_32): > 38.3 µM
- EC50 (HEK293 cells [7]; HEK293, read-out: hek293_glo_ec50_40): > 38.3 µM
- hepg2_flor_auc (HepG2 cells [8]): 0
- hepg2_flor_time (HepG2 cells [8]): 48
- hepg2_flor_bin (HepG2 cells [8]; kinetics bin): inactive
- hepg2_flor_emax_0 (HepG2 cells [8]; time point 0): 0
- hepg2_flor_pod_0 (HepG2 cells [8]; time point 0): -4.417
- hepg2_flor_wauc_0 (HepG2 cells [8]; time point 0): 0
- hepg2_flor_emax_8 (HepG2 cells [8]; time point 8): 0
- hepg2_flor_pod_8 (HepG2 cells [8]; time point 8): -4.417
- hepg2_flor_wauc_8 (HepG2 cells [8]; time point 8): 0
- hepg2_flor_emax_16 (HepG2 cells [8]; time point 16): 0
- hepg2_flor_pod_16 (HepG2 cells [8]; time point 16): -4.417
- hepg2_flor_wauc_16 (HepG2 cells [8]; time point 16): 0
- hepg2_flor_emax_24 (HepG2 cells [8]; time point 24): 0
- hepg2_flor_pod_24 (HepG2 cells [8]; time point 24): -4.417
- hepg2_flor_wauc_24 (HepG2 cells [8]; time point 24): 0
- hepg2_flor_emax_32 (HepG2 cells [8]; time point 32): 0
- hepg2_flor_pod_32 (HepG2 cells [8]; time point 32): -4.417
- hepg2_flor_wauc_32 (HepG2 cells [8]; time point 32): 0
- hepg2_flor_emax_40 (HepG2 cells [8]; time point 40): 0
- hepg2_flor_pod_40 (HepG2 cells [8]; time point 40): -4.417
- hepg2_flor_wauc_40 (HepG2 cells [8]; time point 40): 0
- EC50 (HepG2 cells [8]; time point 0, read-out: hepg2_flor_ec50_0): > 38.3 µM
- EC50 (HepG2 cells [8]; time point 8, read-out: hepg2_flor_ec50_8): > 38.3 µM
- EC50 (HepG2 cells [8]; time point 16, read-out: hepg2_flor_ec50_16): > 38.3 µM
- EC50 (HepG2 cells [8]; time point 24, read-out: hepg2_flor_ec50_24): > 38.3 µM
- EC50 (HepG2 cells [8]; time point 32, read-out: hepg2_flor_ec50_32): > 38.3 µM
- EC50 (HepG2 cells [8]; time point 40, read-out: hepg2_flor_ec50_40): > 38.3 µM

Molecule: CCCCNC(=O)OCC#CI [3-Iodo-2-propynyl-N-butylcarbamate]
- Cyto(realtime)_max [1, 9]: 5.74 log10(M)*-1
- Cyto(realtime)_median [1, 10]: 4.62 log10(M)*-1
- AUC score in Judson 2015 (estrogen receptor (ER)): 0.0283

Molecule: Dodecylphenol
- Cyto(realtime)_max [1, 9]: 5.05 log10(M)*-1
- Cyto(realtime)_median [1, 10]: 4.56 log10(M)*-1
- AUC score in Judson 2015 (estrogen receptor (ER)): 0

Molecule: CC(C)(C)c1cc(/C=C2\SC(N)=NC2=O)cc(C(C)(C)C)c1O [Darbufelone mesylate]
- AUC score in Judson 2015 (estrogen receptor (ER)): 0

Molecule: tetrabutyltin
- Cyto(realtime)_max [1]: 5.64 log10(M)*-1
- Cyto(realtime)_median [1]: 5.16 log10(M)*-1
- AUC score in Judson 2015 (estrogen receptor (ER)): 0.0101
- ER antagonist AUC score (estrogen receptor (ER)): higher than 0.01

Molecule: CCCCCCCCOC(=O)c1cc(O)c(O)c(O)c1 [octyl gallate]
- AUC score in Judson 2015 (estrogen receptor (ER)): 0.0768
- ER antagonist AUC score (estrogen receptor (ER)): higher than 0.01

Molecule: CC(C)c1cccc(C(C)C)c1N1C(=O)c2ccc(O)cc2C1=O [5HPP-33]
- Cyto(realtime)_max [1, 9]: 4.71 log10(M)*-1
- Cyto(realtime)_median [1, 10]: 4.30 log10(M)*-1
- AUC score in Judson 2015 (estrogen receptor (ER)): 0
